Assay results taken from BindingDB's records for doi:10.1016/j.bmc.2018.11.002 (2018).

Legend:
[1] = Inhibition of mouse GAT3 expressed in HEK293 cells assessed as reduction in [3H]GABA uptake preincubated for 25 mins followed by [3H]GABA addition and measured after 4 mins by liquid scintillation counting method
[2] = Inhibition of mouse GAT2 expressed in HEK293 cells assessed as reduction in [3H]GABA uptake preincubated for 25 mins followed by [3H]GABA addition and measured after 4 mins by liquid scintillation counting method

SMILES | IC50 [1] [µM] | IC50 [2] [µM]
COc1ccc(C(C/C=C/CN2CCCC(C(=O)O)C2)(c2ccc(OC)cc2)c2ccc(OC)cc2)cc1 (stereo not given) | 85.1 | –
COc1ccc(C(/C=C/CN2CCCC(C(=O)O)C2)(c2ccc(OC)cc2)c2ccsc2)cc1 (stereo not given) | 42.7 | –
O=C(O)C1CCCN(C/C=C/C(c2ccc3occc3c2)(c2ccc3occc3c2)c2ccc3occc3c2)C1 (stereo not given) | 5.5 | 9.55
O=C(O)C1CCCN(C/C=C/C(c2ccc3c(c2)OCO3)(c2ccc3c(c2)OCO3)c2ccc3c(c2)OCO3)C1 (stereo not given) | 24.5 | 89.1
O=C(O)C1CCCN(C/C=C/C(c2ccc3sccc3c2)(c2ccc3sccc3c2)c2ccc3sccc3c2)C1 (stereo not given) | 52.5 | 33.9
COc1ccc(C(/C=C/CN2CCCC(C(=O)O)C2)c2ccc(OC)cc2)cc1 (stereo not given) | 53.7 | –
Cc1ccc(C(/C=C/CN2CCCC(C(=O)O)C2)(c2ccc(C)cc2)c2ccc(C)cc2)cc1 (stereo not given) | 15.8 | 14.1

Continued, values first:

IC50 [1] [µM] | IC50 [2] [µM] | SMILES
10.2 | – | COc1ccc(C(/C=C/CN2CCCC(C(=O)O)C2)(c2ccc(OC)cc2)c2ccc3c(c2)OCO3)cc1 (stereo not given)
20 | 25.1 | COc1ccc(C(/C=C/CN2CCCC(C(=O)O)C2)(c2ccc(OC)cc2)c2ccc3sccc3c2)cc1 (stereo not given)
– | 23.4 | COc1ccc(C(/C=C/CN2CCC[C@H](C(=O)O)C2)(c2ccc(OC)cc2)c2ccc3sccc3c2)cc1
